The text below walks through data of patent publication US20250368666A1, “INDAZOLE COMPOUNDS” (TYRA BIOSCIENCES, INC., priority 2022, published 2025).

Some results are limits rather than exact numbers.

Common to all, as to test: Kinase binding assay (kinase-tagged T7 phage, affinity beads, qPCR), Kd
For assay [1], the target named is T1, FGFR1 (Homo sapiens, UniProt P11362).
T1 construct: made in house; host or cells: E. coli (BL21-derived), T7 phage
The settings on record: read-out: FGFR1 (Kd nM). The procedure, abridged:
(§1)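 First, phage lysates carrying tagged kinase are made in E. coli at 32° C. Next, they are combined with blocked biotin-ligand streptavidin beads and compound at 0.9% final DMSO. Finally, eluted kinase is measured by qPCR and Kd is fitted with the Hill equation.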

The target in assay [2] is T2, FGFR2 (Homo sapiens, UniProt P21802).
T2 construct: made in house; host or cells: E. coli (BL21-derived), T7 phage
T2 sequence (P21802 22-821): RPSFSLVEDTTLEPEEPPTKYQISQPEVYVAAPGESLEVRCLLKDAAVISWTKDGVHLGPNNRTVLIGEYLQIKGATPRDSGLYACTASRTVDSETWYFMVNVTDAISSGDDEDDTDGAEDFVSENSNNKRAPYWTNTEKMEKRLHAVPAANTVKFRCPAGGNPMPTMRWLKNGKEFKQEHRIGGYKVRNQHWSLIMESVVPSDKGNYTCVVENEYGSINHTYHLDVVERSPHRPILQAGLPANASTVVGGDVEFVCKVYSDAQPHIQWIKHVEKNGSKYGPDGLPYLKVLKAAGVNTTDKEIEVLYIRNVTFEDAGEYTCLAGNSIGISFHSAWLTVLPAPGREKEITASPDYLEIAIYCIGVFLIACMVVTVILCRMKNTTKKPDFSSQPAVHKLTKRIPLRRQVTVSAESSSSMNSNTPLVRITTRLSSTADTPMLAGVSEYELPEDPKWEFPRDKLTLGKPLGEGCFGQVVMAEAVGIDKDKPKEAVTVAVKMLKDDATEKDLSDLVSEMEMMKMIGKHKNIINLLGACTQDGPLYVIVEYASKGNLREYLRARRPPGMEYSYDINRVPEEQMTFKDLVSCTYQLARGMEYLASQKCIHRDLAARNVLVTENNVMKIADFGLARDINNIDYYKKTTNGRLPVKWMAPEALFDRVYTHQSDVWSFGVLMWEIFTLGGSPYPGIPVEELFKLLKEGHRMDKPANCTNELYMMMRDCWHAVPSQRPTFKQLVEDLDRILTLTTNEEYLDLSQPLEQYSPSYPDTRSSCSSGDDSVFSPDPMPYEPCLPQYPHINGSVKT
The settings on record: read-out: FGFR2 (Kd nM). The procedure, abridged: as §1

Assay [3] addresses T3, FGFR3 (Homo sapiens, UniProt P22607).
T3 construct: made in house; host or cells: E. coli (BL21-derived), T7 phage
As to conditions: read-out: FGFR3 (Kd nM). The procedure, abridged:
as §1

In assay [4] the target is T4, FGFR3 (V555M) (Homo sapiens, UniProt P22607, V555M).
T4 construct: made in house; host or cells: E. coli (BL21-derived), T7 phage
T4 sequence (P22607 23-806 V555M): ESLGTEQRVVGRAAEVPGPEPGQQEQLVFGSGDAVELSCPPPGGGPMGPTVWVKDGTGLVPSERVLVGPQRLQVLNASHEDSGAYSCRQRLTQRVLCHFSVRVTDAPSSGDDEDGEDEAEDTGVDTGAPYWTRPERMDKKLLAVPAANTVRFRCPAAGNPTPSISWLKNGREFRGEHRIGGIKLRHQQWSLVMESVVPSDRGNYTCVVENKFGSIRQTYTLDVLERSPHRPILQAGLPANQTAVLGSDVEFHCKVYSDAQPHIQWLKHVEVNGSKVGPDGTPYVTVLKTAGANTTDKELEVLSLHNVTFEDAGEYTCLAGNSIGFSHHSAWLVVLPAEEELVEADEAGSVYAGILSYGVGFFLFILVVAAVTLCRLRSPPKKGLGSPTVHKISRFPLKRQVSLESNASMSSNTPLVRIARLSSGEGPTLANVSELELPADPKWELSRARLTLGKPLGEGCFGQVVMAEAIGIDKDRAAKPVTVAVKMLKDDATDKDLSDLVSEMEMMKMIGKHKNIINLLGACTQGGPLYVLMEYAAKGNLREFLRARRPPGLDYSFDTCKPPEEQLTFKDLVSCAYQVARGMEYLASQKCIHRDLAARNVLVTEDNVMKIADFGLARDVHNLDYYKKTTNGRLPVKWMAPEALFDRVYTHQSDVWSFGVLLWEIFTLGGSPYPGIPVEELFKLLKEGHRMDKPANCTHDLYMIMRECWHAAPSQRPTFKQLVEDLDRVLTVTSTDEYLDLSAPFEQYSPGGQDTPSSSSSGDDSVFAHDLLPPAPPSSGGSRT
The settings on record: V555M mutant; read-out: FGFR3 (V555M) (Kd nM). Put shortly: as §1

Assay [5] has as its target T5, FGFR4 (Homo sapiens, UniProt P22455).
T5 construct: made in house; host or cells: E. coli (BL21-derived), T7 phage
As to conditions: read-out: FGFR4 (Kd nM). The procedure, abridged: as §1

T5 sequence (P22455 22-802): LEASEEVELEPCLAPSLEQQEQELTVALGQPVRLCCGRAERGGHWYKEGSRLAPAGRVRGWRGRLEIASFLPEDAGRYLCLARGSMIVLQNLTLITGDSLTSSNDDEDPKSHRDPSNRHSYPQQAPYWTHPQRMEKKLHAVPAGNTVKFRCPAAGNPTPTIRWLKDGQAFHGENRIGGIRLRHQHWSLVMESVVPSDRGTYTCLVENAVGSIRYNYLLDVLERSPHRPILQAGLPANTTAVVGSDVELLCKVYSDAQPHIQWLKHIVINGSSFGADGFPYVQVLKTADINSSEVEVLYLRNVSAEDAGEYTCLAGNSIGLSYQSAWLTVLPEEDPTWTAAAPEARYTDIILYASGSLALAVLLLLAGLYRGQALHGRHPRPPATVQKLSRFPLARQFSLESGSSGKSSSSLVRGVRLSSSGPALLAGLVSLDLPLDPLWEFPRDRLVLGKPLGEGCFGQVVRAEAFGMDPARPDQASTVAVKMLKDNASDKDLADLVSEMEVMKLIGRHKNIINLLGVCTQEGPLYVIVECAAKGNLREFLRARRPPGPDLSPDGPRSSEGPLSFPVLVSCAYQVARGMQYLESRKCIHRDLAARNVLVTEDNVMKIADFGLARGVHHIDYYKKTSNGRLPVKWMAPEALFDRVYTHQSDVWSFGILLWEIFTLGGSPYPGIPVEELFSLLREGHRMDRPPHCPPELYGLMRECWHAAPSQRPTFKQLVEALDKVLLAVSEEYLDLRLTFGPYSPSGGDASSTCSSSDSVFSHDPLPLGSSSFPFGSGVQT
T1 sequence (P11362 22-822): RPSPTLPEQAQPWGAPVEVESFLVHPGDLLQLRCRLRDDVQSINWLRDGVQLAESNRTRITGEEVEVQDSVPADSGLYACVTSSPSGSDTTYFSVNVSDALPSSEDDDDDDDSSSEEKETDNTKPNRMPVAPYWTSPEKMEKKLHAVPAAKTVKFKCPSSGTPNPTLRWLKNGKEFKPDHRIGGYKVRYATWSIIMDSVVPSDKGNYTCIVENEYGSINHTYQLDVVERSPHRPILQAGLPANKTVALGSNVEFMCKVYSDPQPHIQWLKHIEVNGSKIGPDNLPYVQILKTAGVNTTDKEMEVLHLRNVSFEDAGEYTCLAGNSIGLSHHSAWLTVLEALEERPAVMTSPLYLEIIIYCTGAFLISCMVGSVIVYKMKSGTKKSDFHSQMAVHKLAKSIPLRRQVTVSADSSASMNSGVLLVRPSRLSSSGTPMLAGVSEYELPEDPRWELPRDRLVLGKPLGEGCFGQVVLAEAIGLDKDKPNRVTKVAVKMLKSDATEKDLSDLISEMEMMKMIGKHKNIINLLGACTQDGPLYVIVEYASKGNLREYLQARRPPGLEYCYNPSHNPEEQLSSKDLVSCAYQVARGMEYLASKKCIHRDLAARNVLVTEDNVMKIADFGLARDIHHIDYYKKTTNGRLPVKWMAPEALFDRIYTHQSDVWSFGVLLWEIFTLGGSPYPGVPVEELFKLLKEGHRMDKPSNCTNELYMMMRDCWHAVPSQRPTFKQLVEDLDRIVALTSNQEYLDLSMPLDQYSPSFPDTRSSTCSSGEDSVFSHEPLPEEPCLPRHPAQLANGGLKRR
T3 sequence (P22607 23-806): as the sequence (P22607 23-806 V555M) above, with M533V counted along it

As for `C[C@@H](Oc1ccc2[nH]nc(-c3cnc(N4CC(C)(NC5CCC5)C4)c(C#N)c3)c2c1)c1c(Cl)cncc1Cl` [Example 2, (R)-2-(3-(cyclobutylamino)-3-methylazetidin-1-yl)-5-(5-(1-(3,5-dichloropyridin-4-yl)ethoxy)-1H-indazol-3-yl)nicotinonitrile], the Kd – broadly, the constant that tells how readily two partners part at equilibrium – in assay [1] is 50 to 300 nM; in assay [2], 50 to 300 nM; in assay [3] it was 1 to 50 nM; in assay [4] it was 1 to 50 nM; in assay [5] it was 1 to 50 nM.

Turning to `CC(C)NC1(C)CN(c2ncc(-c3n[nH]c4ccc(O[C@H](C)c5c(Cl)cncc5Cl)cc34)cn2)C1` [Example 236, (R)-1-(5-(5-(1-(3,5-dichloropyridin-4-yl)ethoxy)-1H-indazol-3-yl)pyrimidin-2-yl)-N-isopropyl-3-methylazetidin-3-amine], the dissociation constant Kd in assay [1], in assay [2], in assay [3], in assay [4] and in assay [5] was 1 to 50 nM in each case.

Consider `COCCN(C)C1(C)CN(c2ncc(-c3n[nH]c4ccc(O[C@H](C)c5c(Cl)cncc5Cl)cc34)cn2)C1` [Example 79, (R)-1-(5-(5-(1-(3,5-dichloropyridin-4-yl)ethoxy)-1H-indazol-3-yl)pyrimidin-2-yl)-N-(2-methoxyethyl)-N,3-dimethylazetidin-3-amine], for which the Kd in assay [1], in assay [2], in assay [3], in assay [4] and in assay [5] was 1 to 50 nM in each case.

As to `C[C@@H](O)CNC1(C)CN(c2ncc(-c3n[nH]c4ccc(O[C@H](C)c5c(Cl)cncc5Cl)cc34)cc2F)C1` [Example 104, (R)-1-((1-(5-(5-((R)-1-(3,5-dichloropyridin-4-yl)ethoxy)-1H-indazol-3-yl)-3-fluoropyridin-2-yl)-3-methylazetidin-3-yl)amino)propan-2-ol], the Kd in assay [1], in assay [2], in assay [3], in assay [4] and in assay [5] was 1 to 50 nM in each case.

As to `C[C@@H](Oc1ccc2[nH]nc(-c3cnc(N4CC(C)(NCC5CC5)C4)c(C#N)c3)c2c1F)c1c(Cl)cncc1Cl` [Example 318, (R)-2-(3-((cyclopropylmethyl)amino)-3-methylazetidin-1-yl)-5-(5-(1-(3,5-dichloropyridin-4-yl)ethoxy)-4-fluoro-1H-indazol-3-yl)nicotinonitrile], the Kd in assay [1] was > 1000 nM; in assay [2], > 1000 nM; in assay [3], > 1000 nM; in assay [4], > 1000 nM; in assay [5], 50 to 300 nM.

Take `C[C@@H](Oc1cc2c(-c3ccc(N4CC(C)(NC5CCC5)C4)nc3)n[nH]c2cc1F)c1c(Cl)cncc1Cl` [Example 68, N-cyclobutyl-1-[5-[5-[(1R)-1-(3,5-dichloro-4-pyridyl)ethoxy]-6-fluoro-1H-indazol-3-yl]-2-pyridyl]-3-methyl-azetidin-3-amine]: the Kd in assay [1], in assay [2], in assay [3], in assay [4] and in assay [5] was 1 to 50 nM each time.

Turning to `C[C@@H](Oc1cc2c(-c3cnc(N4CC5(CC5)C4)c(C#N)c3)n[nH]c2cc1F)c1c(Cl)cncc1Cl` [Example 5, (R)-5-(5-(1-(3,5-Dichloropyridin-4-yl)ethoxy)-6-fluoro-1H-indazol-3-yl)-2-(5-azaspiro[2.3]hexan-5-yl)nicotinonitrile], the Kd in assay [1] was > 1000 nM; in assay [2] it was > 1000 nM; in assay [3], 50 to 300 nM; in assay [4], 50 to 300 nM; in assay [5], 1 to 50 nM.

On to `C[C@@H](Oc1cc2c(-c3cnc(N4CC(C)(NCCO)C4)c(F)c3)n[nH]c2cc1F)c1c(Cl)cncc1Cl` [Example 165], for which the Kd in assay [1], in assay [2], in assay [3], in assay [4] and in assay [5] was 1 to 50 nM throughout.

Take `C[C@@H](Oc1cc2c(-c3ccc(N4CC(C)(CN5CCOCC5)C4)nc3)n[nH]c2cc1F)c1c(Cl)cncc1Cl` [Example 186, (R)-4-((1-(5-(5-(1-(3,5-dichloro-pyridin-4-yl)ethoxy)-6-fluoro-1H-indazol-3-yl)pyridin-2-yl)-3-methylazetidin-3-yl)methyl)morpho-line]: the Kd in assay [1], in assay [2], in assay [3], in assay [4] and in assay [5] was 1 to 50 nM in each case.

For `C[C@@H](Oc1ccc2[nH]nc(-c3ccc(N4CC(C)(N5CCP(C)(=O)CC5)C4)nc3)c2c1)c1c(Cl)cncc1Cl` [Example 226, (R)-1-(1-(5-(5-(1-(3,5-dichloropyridin-4-yl)ethoxy)-1H-indazol-3-yl)pyridin-2-yl)-3-methylazetidin-3-yl)-4-methyl-1,4-azaphosphinane 4-oxide], the Kd in assay [1], in assay [2], in assay [3], in assay [4] and in assay [5] was 1 to 50 nM in each case.

As for `C[C@@H](Oc1ccc2[nH]nc(-c3cnc(N4CC(C)(NCC5(O)CC5)C4)c(C#N)c3)c2c1)c1c(Cl)cncc1Cl` [Example 120, (R)-5-(5-(1-(3,5-dichloropyridin-4-yl)ethoxy)-1H-indazol-3-yl)-2-(3-(((1-hydroxycyclopropyl)meth-yl)amino)-3-methylazetidin-1-yl)nicotinonitrile], the Kd in assay [1] was in the range of 1 to 50 nM; in assay [2] it was 50 to 300 nM; in assay [3], 1 to 50 nM; in assay [4] it was 1 to 50 nM; in assay [5], 1 to 50 nM.

For the compound `C[C@H](Oc1ccc2[nH]nc(-c3cnc(N4C[C@@H](CS(C)(=O)=O)[C@@H]4C)c(F)c3)c2c1)c1c(Cl)cncc1Cl` [Example 202, 5-((S)-1-(3,5-dichloropyridin-4-yl)ethoxy)-3-(5-fluoro-6-((2S,3R)-2-methyl-3-((meth-ylsulfonyl)meth-yl)azetidin-1-yl)pyridin-3-yl)-1H-indazole], the Kd in assay [1] is 300 to 1000 nM; in assay [2], > 1000 nM; in assay [3], 50 to 300 nM; in assay [4], 1 to 50 nM; in assay [5], 50 to 300 nM.

Regarding `C[C@@H](Oc1ccc2[nH]nc(-c3cnc(N4CC(C)(C(=O)NCCO)C4)c(F)c3)c2c1)c1c(Cl)cncc1Cl` [Example 162, 1-[5-[5-[(1R)-1-(3,5-dichloro-4-pyridyl)ethoxy]-1H-indazol-3-yl]-3-fluoro-2-pyridyl]-N-(2-hydroxyethyl)-3-methyl-azetidine-3-carboxamide], the Kd in assay [1], in assay [2], in assay [3], in assay [4] and in assay [5] was 1 to 50 nM throughout.

For `CC(C)NCC1(C)CN(c2ncc(-c3n[nH]c4ccc(O[C@H](C)c5c(Cl)cncc5Cl)c(F)c34)cc2C#N)C1` [Example 326, (R)-5-(5-(1-(3,5-dichloropyridin-4-yl)ethoxy)-4-fluoro-1H-indazol-3-yl)-2-(3-((isopropylamino)methyl)-3-methylazetidin-1-yl)nicotinonitrile], the Kd in assay [1] was > 1000 nM; in assay [2] it was > 1000 nM; in assay [3] it was > 1000 nM; in assay [4], > 1000 nM; in assay [5] it was 1 to 50 nM.

As to `C[C@@H](Oc1ccc2[nH]nc(-c3ccc(N4CC(C)(N5CCOCC5)C4)nc3)c2c1)c1c(Cl)cncc1Cl` [Example 94, 4-[1-[5-[5-[(1R)-1-(3,5-dichloro-4-pyridyl)ethoxy]-1H-indazol-3-yl]-2-pyridyl]-3-methyl-azetidin-3-yl]morpholine], the Kd in assay [1], in assay [2], in assay [3], in assay [4] and in assay [5] was 1 to 50 nM throughout.

Take `C[C@@H](Oc1ccc2[nH]nc(-c3cnc(N4CC(C)(CP(C)(C)=O)C4)c(C#N)c3)c2c1F)c1c(Cl)cncc1Cl` [Example 323, (R)-5-(5-(1-(3,5-dichloropyridin-4-yl)ethoxy)-4-fluoro-1H-indazol-3-yl)-2-(3-((dimethyl-phosphoryl)methyl)-3-methylazetidin-1-yl)nicotinonitrile]: the Kd was > 1000 nM in assay [1]; > 1000 nM in assay [2]; > 1000 nM in assay [3]; 300 to 1000 nM in assay [4]; 1 to 50 nM in assay [5].

For the compound `CCNC1(C)CN(c2ccc(-c3n[nH]c4ccc(O[C@H](C)c5c(Cl)cncc5Cl)cc34)cn2)C1` [Example 239, 1-[5-[5-[(1R)-1-(3,5-dichloro-4-pyridyl)ethoxy]-1H-indazol-3-yl]-2-pyridyl]-N-ethyl-3-methyl-azetidin-3-amine], the Kd in assay [1], in assay [2], in assay [3], in assay [4] and in assay [5] was 1 to 50 nM throughout.

Take `CC(C)NCC1(C)CN(c2ccc(-c3n[nH]c4cc(F)c(O[C@H](C)c5c(Cl)cncc5Cl)cc34)cn2)C1` [Example 189, (R)-N-((1-(5-(5-(1-(3,5-dichloro-pyridin-4-yl)ethoxy)-6-fluoro-1H-indazol-3-yl)pyridin-2-yl)-3-methylazetidin-3-yl)methyl)propan-2-amine]: the Kd in assay [1], in assay [2], in assay [3], in assay [4] and in assay [5] was 1 to 50 nM in each case.
